SMILES strings stand for the structures.

Usually EC50 stands for the concentration needed to bring the measured effect to its halfway point. Read a high EC50 as a need for much substance.

The assay has as its target T1, 3-phosphoinositide-dependent protein kinase 1 (Homo sapiens, UniProt O15530).
T1 sequence (O15530 whole entry): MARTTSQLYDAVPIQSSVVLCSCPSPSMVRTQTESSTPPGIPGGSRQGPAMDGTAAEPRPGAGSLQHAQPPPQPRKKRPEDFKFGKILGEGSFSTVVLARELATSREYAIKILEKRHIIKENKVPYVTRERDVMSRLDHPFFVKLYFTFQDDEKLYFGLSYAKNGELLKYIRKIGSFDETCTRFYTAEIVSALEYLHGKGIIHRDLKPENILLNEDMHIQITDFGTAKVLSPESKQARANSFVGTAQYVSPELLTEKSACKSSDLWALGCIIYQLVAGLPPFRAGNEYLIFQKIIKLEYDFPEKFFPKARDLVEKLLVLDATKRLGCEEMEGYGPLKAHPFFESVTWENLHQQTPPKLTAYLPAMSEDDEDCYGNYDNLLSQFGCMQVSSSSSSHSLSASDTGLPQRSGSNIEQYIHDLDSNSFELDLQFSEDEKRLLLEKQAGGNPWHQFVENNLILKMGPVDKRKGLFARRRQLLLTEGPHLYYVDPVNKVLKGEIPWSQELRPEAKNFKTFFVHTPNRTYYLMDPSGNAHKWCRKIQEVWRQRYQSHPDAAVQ
The assay is described as follows: Proliferation Assay. The protocol: Enzyme potency (PDK1 EC50)was determined using recombinant, purified full-length human PDK1 enzyme and AKT-Thr-308-tide as substrate.
`Cc1[nH]nc2c1c(=O)n(CCCN)c1ccc(Cl)cc21` had an EC50 of 9 nM. Turning to `CC(C)(C)c1nc2c3ccc(F)cc3c3c(=O)[nH]ccc3c2[nH]1` [Jak Inhibitor 1], the EC50 stood at 1 nM. In turn, `O=C(NCCCNc1nc(Nc2cccc(NC(=O)N3CCCC3)c2)ncc1I)c1cccs1` [N-{3-[(5-iodo-4-{[3-(thiophen-2-ylformamido)propyl]amino}pyrimidin-2-yl)amino]phenyl}pyrrolidine-1-carboxamide] had an EC50 of 26 nM. Then `CC(Nc1nc2c(C#CC3CC3)c[nH]c(=O)c2c2cc(-c3cn[nH]c3)ccc12)C(C)(C)C` (stereo unspecified) [PDK1 inhibitor, 2], with 9 nM. Compound `COc1ccc(C#Cc2ccc3ncc4ncn(-c5ccc(CCN)cc5)c4c3c2)cc1` [PDK1 inhibitor, 4] had an EC50 of 200 nM.

Consider `Cc1[nH]nc(-c2nc3cc4c[nH][nH]c4cc3n2)c1C(=O)NC1CCNCC1` [PDK1 inhibitor, 6], for which the EC50 came to 12 nM.

The record behind these values is BindingDB's records for doi:10.1074/jbc.M110.156463 (Merck Research Laboratories, 2011).
